Laboratory results from patent publication US20230391729A1, “SUCCINATE SALTS OF N-(3-(4-(3-(DIISOBUTYLAMINO)PROPYL)PIPERAZIN-1-YL)PROPYL)-1H-BENZO[D]IMIDAZOL-2-AMINE, PREPARATION THEREOF AND USE OF THE SAME” (ALZPROTECT, priority 2020, published 2023).

Columns and labels:
[1] = system: PGRN; assay: Extracellular progranulin quantification by ELISA after Aβ1-42 injury; type: cell-based, rat; conditions: Aβ1-42 injury 72 h; 10 nM
Protocol: Rat cortical neurons cultured with microglia were cultured as described by Callizot et al. in J Neurosci Res. 2013, 91: 706-716 with modifications to include microglial cells. Pregnant female rats (Rats Wistar; Janvier Labs France) of 15 days of gestation were killed, after a deep anesthesia with CO2, by cervical dislocation. Then, fetuses were collected and immediately placed in ice-cold L15 Leibovitz medium with a 2% penicillin (10,000 U/ml) and streptomycin (10 mg/ml) solution (PS) and 1% bovine serum albumin (BSA). Cortexes were treated for 20 min at 37° C. with a trypsin-EDTA solution at a final concentration of 0.05% trypsin and 0.02% EDTA. […] Viable cells were counted in a Neubauer cytometer, using the trypan blue exclusion test. […]
Cortical neurons were intoxicated with A3 solutions (see below) after 11 days of culture. […] This solution was gently agitated for 3 days at 37° C. in the dark and immediately used after being properly diluted in control medium to the concentrations used ([…] of Aβ1-42 preparation containing […] of Aβ oligomers (AβO) measured by WB). […]
Levels of PGRN in the culture medium were determined by ELISA (Progranulin (rat) ELISA lit, Adipogen, Coger) according to manufacturer's recommendations. […] Optical density (OD) was assessed by spectrophotometry at 450 nm wavelength with a Glomax apparatus (Promega). […]

[2] = system: dopaminergic (TH positive) neurons; assay: Survival and neurite network of TH(+) mesencephalic neurons after rotenone injury; type: cell-based, rat; conditions: rotenone 10 nM 24 h
Protocol: Rat dopaminergic neurons were cultured as described by Visanji et al. in FASEB J. 2008, 22(7): 2488-2497 and Callizot et al., in Plos One 2019: https://doi.org/10.1371/journal.pone.0215277. Briefly, pregnant female rat (Wistar) of 15 days of gestation were killed using a deep anesthesia with CO2 chamber and a cervical dislocation. The midbrains obtained from 15-day-old rat embryos (Janvier, France) were dissected under a microscope. The embryonic midbrains were removed and placed in ice-cold medium of Leibovitz (L15) containing 2% of Penicillin-Streptomycin (PS) and 1% of BSA. The ventral portion of the mesencephalic flexure, a region of the developing brain rich in dopaminergic neurons, were used for the cell preparations. The midbrains were dissociated by trypsinization for 20 min at 37° C. (solution at a final concentration of 0.05% trypsin and 0.02% EDTA). The reaction was stopped by the addition of DMEM containing DNAase I grade II (0.5 mg/mL) and 10% of FCS. Cells were then mechanically dissociated by 3 passages through a 10 ml pipette. Cells were then centrifuged at 180×g for 10 min at +4° C. on a layer of BSA (3.5%) in L15 medium. The supernatant was discarded and the cell pellets were re-suspended in a defined culture medium consisting of Neurobasal supplemented with B27 (2%), L-glutamine (2 mM) and 2% of PS solution and 10 ng/mL of BDNF and 1 ng/mL of Glial-Derived Neurotrophic Factor (GDNF). Viable cells were counted in a Neubauer cytometer using the trypan blue exclusion test. The cells were seeded at a density of 40,000 cells/well in 96 well-plates (pre-coated with poly-L-lysine) and maintained in a humidified incubator at 37° C. in 5% CO2/95% air atmosphere. Half of the medium was changed every 2 days with fresh medium. […]
The following read-outs were investigated: • neuron survival: total number of TH neurons (TH staining), • neurite network: total length of neurite network of TH positive neurons (in μm) • α-syn aggregation (area of overlapping between TH and α-syn staining in μm^2) […]

Substance: N-(3-(4-(3-(diisobutylamino)propyl)piperazin-1-yl)propyl)-1H-benzo[d]imidazol-2-amine sesqui-succinate salt [sesqui-succinate salt Form 1]
- levels of extracellular PGRN [1]: significantly increased
- neuron survival: total number of TH neurons ([2]; administered directly with rotenone, all concentrations): significantly increased neuronal survival
- neurite network of TH positive neurons ([2]; pre and co-treatment, 10 to 100 nM): significantly improved
- neuron survival: total number of TH neurons ([2]; pre-incubated, 10 and 50 nM): significantly neuroprotective
